# Data: patent publication US20260248930A1, “PEPTIDE COMPOSITIONS TARGETING GLYPICAN-3 AND USES THEREOF” (PeptiDream Inc., priority 2023, published 2026)
# *1 amine or outer side, *2 acyl side, *3 side chain or, on linkers, in order; H or OH if unused. Where a SMILES comes first, the peptide text is derived from it. Bridges are numbered along the chain shown (N, C = ends). [ ]: non-standard residue; d: D form. The star is where a group is joined. ξ: configuration not given here. MeDapCOpipzaa = 3-(4-(carboxymethyl)piperazine-1-carboxamido)-2-(methylamino)propanoic acid, CN([C@@H](CNC(=O)N1CCN(CC(=O)[*:3])CC1)C(=O)[*:2])[*:1]; F4aao = (S)-2-amino-3-(4-(carboxymethoxy)phenyl)propanoic acid, O=C([C@H](Cc1ccc(OCC(=O)[*:3])cc1)N[*:1])[*:2]; MeHseMe = 4-methoxy-2-(methylamino)butanoic acid, COCC[C@@H](C(=O)[*:2])N(C)[*:1]; Phe(4-(1-Me-pyrazol-4-yl)) = Cn1cc(-c2ccc(C[C@H](N)C(=O)O)cc2)cn1; Biotin‑PEG12c = biotin-PEG12c group on the lysine side chain; TMe = O-methyl threonine, CO[C@H](C)[C@H](N[*:1])C(=O)[*:2]; NMeAla(isoquinolin-7-yl) = CN[C@@H](Cc1ccc2ccncc2c1)C(=O)O; 3Pal(6-Ph) = N[C@@H](Cc1ccc(-c2ccccc2)nc1)C(=O)O; Biotin = O=C1N[C@H]2[C@H](CS[C@H]2CCCCC(=O)*)N1; PEG10 = NCCOCCOCCOCCOCCOCCOCCOCCOCCOCCOCCC(=O)O; Phe(4-COOH) = N[C@@H](Cc1ccc(C(=O)O)cc1)C(=O)O; NMe2Nal = CN[C@@H](Cc1ccc2ccccc2c1)C(=O)O; AEF = NCCOc1ccc(C[C@H](N)C(=O)O)cc1; NMeI = CC[C@H](C)[C@H](NC)C(=O)O; NMeQ = CN[C@@H](CCC(N)=O)C(=O)O; NMeK = CN[C@@H](CCCCN)C(=O)O; NMeC = CN[C@@H](CS)C(=O)O; ξNMeC = CNC(CS)C(=O)O
# Legend:
# [1] = target: Human Glypican3-Fc (Homo sapiens, UniProt P51654); experiment: SPR binding to human Glypican3-Fc captured on Protein A chip, Method B-3 (5 concentrations); conditions: SPR method B-3
# Description: (§1) A Protein A sensor chip (Cytiva) was inserted into a Biacore T200 (Cytiva), priming was performed three times with a running buffer: HBS-P+, pH 7.4 (Cytiva), and equilibration was carried out at a flow rate of 30 μL/min. Glypican3-Fc was allowed to react for 60 seconds at a flow rate of 10 μL/min. After capturing human Glypican3-Fc, a peptide solution prepared to 10 mM in DMSO solution was diluted with a running buffer to a final concentration of 10 μM. […] Using the above samples, peptide kinetics for Glypican3 was obtained by SPR measurement. Kinetics evaluation of Glypican3 was performed by SPR measurements at a flow rate of 10 μL/min, setting the association time to 120 seconds and the disassociation time to 600 seconds.
# (§2) The obtained data by Method B-1, Method B-2, Method B-3, and Method B-4 were analyzed by follow. Single Cycle Kinetics was used as the kinetics evaluation model, and curve fitting was performed using Biacore T200 Evaluation Software Version 3.0 (Cytiva).
# [2] = tested on: HepG2 cells (glypican 3 expressed on the cell surface); experiment: Flow cytometry, biotinylated peptides followed by SAPE, HepG2; assay type: cell-based, human; conditions: biotinylated peptide at 100 nM followed by SAPE (1:250), on ice; compared with SK-Hep1 negative control; FIG. 2
# Description: (§3) Macrocyclic peptide-conjugates in this invention were tested in cells expressing glypican 3 and analyzed by flow cytometry.
# (§4) HepG2 (human hepatocellular carcinoma) and SK-HEP-1 (human hepatic adenocarcinoma) cell lines were purchased from the American Type Culture Collection (ATCC; Manassas, VA). Huh-7 (human hepatoblastoma) cell line was purchased from the Japanese Collection of Research Bioresources Cell Bank (JCRB Cell Bank, Osaka, Japan). HepG2 and SK-HEP-1 were grown in EMEM (FUJIFILM Wako Pure Chemical Corporation, 055-08975) with 10% fetal bovine serum (FBS; Thermo Fisher Scientific, 10270106) and 0.1% gentamicin (NACALAI TESQUE, 11980-14). Huh-7 was grown in DMEM (Thermo Fisher Scientific, 10567014) with 10% FBS and 0.1% gentamicin.
# (§5) HepG2, SK-HEP-1 and Huh-7 cells were collected from the culture dish and stained with biotinylated peptides at 100 nM followed by Streptavidin, R-Phycoerythrin Conjugate (SAPE; Thermo Fisher Scientific, S866) (1:250). Cells were washed with phosphate-buffered saline (PBS; FUJIFILM Wako Pure Chemical Corporation, 043-29791) containing 0.5% FBS after addition of peptides or SAPE. All staining procedures were performed on ice. Samples were measured using CytoFLEX S (Beckman Coulter) and CytExpert ver2.4 software. All data were analyzed using FlowJo™ (BD Bioscience). […]
# [3] = tested on: Huh-7 cells (glypican 3 expressed on the cell surface); experiment: Flow cytometry, biotinylated peptides followed by SAPE, Huh-7; assay type: cell-based, human; conditions: biotinylated peptide at 100 nM followed by SAPE (1:250), on ice; compared with SK-Hep1 negative control; FIG. 3
# Description: as §3, §4, §5
# [4] = target: T1, human Glypican3 (Homo sapiens, UniProt P51654); experiment: SPR binding to immobilized human Glypican3, Method B-1 (CM3 chip, amine coupling); conditions: SPR method B-1
# T1 construct: purchased R&D systems 2119-GP
# T1 sequence (P51654 25-554): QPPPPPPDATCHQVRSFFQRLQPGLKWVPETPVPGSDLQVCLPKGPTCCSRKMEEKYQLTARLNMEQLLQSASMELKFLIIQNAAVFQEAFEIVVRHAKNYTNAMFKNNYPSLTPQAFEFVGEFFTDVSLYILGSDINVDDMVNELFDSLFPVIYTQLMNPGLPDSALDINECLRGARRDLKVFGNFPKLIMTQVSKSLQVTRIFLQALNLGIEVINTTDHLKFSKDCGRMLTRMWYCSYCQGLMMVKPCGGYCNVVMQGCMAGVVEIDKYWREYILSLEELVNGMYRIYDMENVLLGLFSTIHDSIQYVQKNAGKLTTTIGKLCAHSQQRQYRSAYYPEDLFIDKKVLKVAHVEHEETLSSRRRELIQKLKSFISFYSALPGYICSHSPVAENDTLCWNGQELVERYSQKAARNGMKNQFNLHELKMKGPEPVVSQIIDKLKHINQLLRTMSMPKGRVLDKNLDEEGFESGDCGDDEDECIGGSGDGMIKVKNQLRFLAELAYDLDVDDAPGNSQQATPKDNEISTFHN
# Description: Macrocyclic peptides in this invention were tested for binding to Glypican-3 protein by SPR.
# A CM3 sensor chip (Cytiva) was inserted into a Biacore T200 (Cytiva), primed three times with a running buffer: HBS-P+, pH 7.4 (Cytiva), and equilibrated at a flow rate of 30 μL/min. Ligand immobilization was performed at a flow rate of 10 μL/min. 50 μL each of 60 mM EDC solution (Cytiva) and 650 mM NHS solution (Cytiva) were mixed, and then reacted at a flow rate of 10 μL/min for 420 seconds. 150 μL of 0.2 μM human Glypican3 (R&D systems, catalog number: 2119-GP) solution which was prepared by diluting with 10 mM acetic acid solution (pH 5.0), was reacted at a flow rate of 10 μL/min for 420 seconds, and Glypican3 was immobilized on the CM3 sensor chip. After immobilization, 1.0 M ethanolamine aqueous solution (Cytiva) was allowed to react for 420 seconds at a flow rate of 10 μL/min for capping. A peptide lysate prepared to 10 mM in DMSO solution was diluted with running buffer to a final concentration of 10 μM peptide lysate. After that, 5 serial dilution series (100 nM, 50 nM, 25 nM, 10 nM, 5 nM) of peptide solutions were prepared. Using the above samples, peptide kinetics for Glypican3 was obtained by SPR measurement. […]
# The obtained data by Method B-1, Method B-2, Method B-3, and Method B-4 were analyzed by follow. […]
# [5] = target: Human Glypican3-Fc (ACRO Biosystems, GP3-H5258) (human) (UniProt P51654); experiment: SPR Biacore T200, Method B-3: Glypican3-Fc captured on Protein A chip, single cycle kinetics
# Human Glypican3-Fc (ACRO Biosystems, GP3-H5258) (human), sequence (P51654 25-559 limits assumed): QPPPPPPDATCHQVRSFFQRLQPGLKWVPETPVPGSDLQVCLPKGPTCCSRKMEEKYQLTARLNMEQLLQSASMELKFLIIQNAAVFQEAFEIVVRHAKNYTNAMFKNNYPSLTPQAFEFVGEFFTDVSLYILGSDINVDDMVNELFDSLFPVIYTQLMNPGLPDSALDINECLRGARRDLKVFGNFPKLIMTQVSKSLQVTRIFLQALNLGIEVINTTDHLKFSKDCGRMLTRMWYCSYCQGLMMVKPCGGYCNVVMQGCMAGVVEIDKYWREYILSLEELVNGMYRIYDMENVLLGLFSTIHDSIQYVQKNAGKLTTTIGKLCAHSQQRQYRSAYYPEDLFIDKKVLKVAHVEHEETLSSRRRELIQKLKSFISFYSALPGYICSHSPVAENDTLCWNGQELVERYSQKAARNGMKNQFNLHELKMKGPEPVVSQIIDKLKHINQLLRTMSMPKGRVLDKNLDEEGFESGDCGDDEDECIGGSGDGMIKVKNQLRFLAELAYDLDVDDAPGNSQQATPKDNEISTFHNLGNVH
# [6] = target: T2, Human Glypican3-Fc (ACRO Biosystems, GP3-H5258) (human, UniProt P51654 25-559); experiment: as above
# T2 construct: Bought Fc fusion, captured by anti-human IgG (Fc) antibody (Method B-2) or on a Protein A chip (Methods B-3, B-4); Supplier and catalogue number are printed only in Method B-2; B-3 and B-4 say only Glypican3-Fc / human Glypican3-Fc; not shown: Fc part of the bought fusion protein
# T2 sequence (P51654 25-559 limits assumed): as above
# Description: as §1, §2
molecule,measurement,setting,value
"CC[N+]1=C(/C=C/C=C/C=C2/N(CCCCCC(=O)NCCCC[C@H](NC(=O)CCOCCOCCOCCOCCOCCOCCOCCOCCOCCOCCNC(=O)CNC(C)=O)C(N)=O)c3ccc(S(=O)(=O)O)cc3C2(C)C)C(C)(C)c2cc(S(=O)(=O)[O-])ccc21 [C-M-64, 2-[(1E,3E)-5-[(2E)-1-(5-{[(5)-5-carbamoyl-5-[1-(2-acetamidoacetamido)-3,6,9,12,15,18,21,24,27,30-decaoxatritriacontan-33-amido]pentyl]carbamoyl}pentyl)-3,3-dimethyl-5-sulfo-2,3-dihydro-1H-indol-2-ylidene]penta-1,3-dien-1-yl]-1-ethyl-3,3-dimethyl-3H-indol-1-ium-5-sulfonate, reference compound]",Kd,[1],< 1 nM
CC[C@H](C)[C@@H]1NC(=O)[C@H](Cc2ccc(C(=O)O)cc2)NC(=O)[C@H](CCC(N)=O)N(C)C(=O)[C@H](CC(=O)O)NC(=O)[C@H]([C@@H](C)CC)N(C)C(=O)[C@H](CCCCNC(C)=O)N(C)C(=O)CSCC(C(=O)NCC(=O)NCCOCCOCCOCCOCCOCCOCCOCCOCCOCCOCCC(=O)N[C@@H](CCCCNC(=O)CCCC[C@@H]2SC[C@@H]3NC(=O)N[C@@H]32)C(N)=O)N(C)C(=O)[C@H](Cc2ccc(-c3ccccc3)nc2)NC(=O)CNC(=O)[C@H](Cc2ccc3ccncc3c2)N(C)C(=O)[C@H](Cc2ccc(O)cc2)NC(=O)[C@H]([C@@H](C)CC)NC1=O (some centres unmarked) [PLB-60] ({CH2CO}-[NMeK](Ac)[NMeI]D[NMeQ][Phe(4-COOH)]IIY[NMeAla(isoquinolin-7-yl)]G[3Pal(6-Ph)][ξNMeC]G[PEG10]K(Biotin)-NH2; thioether N-12),comparative staining of HepG2 by flow cytometry,[2],specific binding to both glypican expressing cells and SAPE
same,comparative staining of Huh-7 by flow cytometry,[3],specific binding to both glypican expressing cells and SAPE
CC[C@H](C)[C@@H]1NC(=O)[C@H]([C@@H](C)OC)NC(=O)[C@H](Cc2ccc(C(=O)O)cc2)NC(=O)[C@H](CCC(N)=O)N(C)C(=O)[C@H](CC(=O)O)NC(=O)[C@H](CCC(N)=O)N(C)C(=O)[C@H](CCC(N)=O)N(C)C(=O)CSC[C@@H](C(N)=O)N(C)C(=O)[C@H](Cc2ccc(-c3cnn(C)c3)cc2)NC(=O)CNC(=O)[C@H](Cc2ccc3ccccc3c2)N(C)C(=O)[C@H](Cc2ccc(C(=O)O)cc2)NC1=O [compound 18] ({CH2CO}-[NMeQ][NMeQ]D[NMeQ][Phe(4-COOH)]T(Me)I[Phe(4-COOH)][NMe2Nal]G[Phe(4-(1-Me-pyrazol-4-yl))][NMeC]-NH2; thioether N-12),Kd,[4],1.8 nM
CC[C@H](C)[C@@H]1NC(=O)[C@H]([C@@H](C)OC)NC(=O)[C@H](Cc2ccc(C(=O)O)cc2)NC(=O)[C@H](CNC(=O)N2CCN(CC(=O)O)CC2)N(C)C(=O)[C@H](CC(=O)O)NC(=O)[C@H](CCOC)N(C)C(=O)[C@H](CCCCNC(=O)N2CCN(CC(=O)O)CC2)N(C)C(=O)CSC[C@@H](C(N)=O)N(C)C(=O)[C@H](Cc2ccc(-c3ccccc3)nc2)NC(=O)CNC(=O)[C@H](Cc2ccc3ccncc3c2)N(C)C(=O)[C@H](Cc2ccc(OCCN)cc2)NC1=O [compound 55],Kd,[1],1.8 nM
{CH2CO}-[MeDapCOpipzaa][MeHseMe]D[MeDapCOpipzaa][Phe(4-COOH)][TMe]I[AEF][NMe2Nal]G[3Pal(6-Ph)][NMeC]-NH2 (thioether N-12) [macrocyclic peptide of SEQ ID NO: 50],Kd,[5],0.3 nM
{CH2CO}-[MeDapCOpipzaa][MeHseMe]D[MeDapCOpipzaa][Phe(4-COOH)][TMe]I[AEF][NMeAla(isoquinolin-7-yl)]G[3Pal(6-Ph)][NMeC]-NH2 (thioether N-12) [macrocyclic peptide of SEQ ID NO: 54],Kd,[5],1 nM
{CH2CO}-[NMeK](Biotin‑PEG12c)[NMeI]D[NMeQ][Phe(4-COOH)]II[F4aao][NMeAla(isoquinolin-7-yl)]G[3Pal(6-Ph)][NMeC]-NH2 (thioether N-12) [macrocyclic peptide-biotin conjugate PLB-64 (SEQ ID NO: 76)],Kd,[6],1.04 nM
